US20070026506A1, “METHOD FOR THE PRODUCTION OF TAXOL AND/OR TAXANES FROM CULTURES OF HAZEL CELLS” (Centro Biotecnologie Avanzate, priority 2005, published 2007)

Columns and labels:
Format in all cases: cell-based
[1] = system: explants of Taxus baccata; test: callus induction from explants of Taxus baccata; settings: for CALLUS INDUCTION 30 days Leaves (%) / CALLUS INDUCTION 60 days Leaves (%): T. baccata leaves; for CALLUS INDUCTION 30 days Seeds (%) / CALLUS INDUCTION 60 days Seeds (%): T. baccata seeds; for CALLUS INDUCTION 30 days Stems (%) / CALLUS INDUCTION 60 days Stems (%): T. baccata stems
Experimental: (§1) Therefore, in vitro cultures of plant tissues were prepared using leaves, stems and seeds of Corylus avellana (hazel) and of Taxus baccata. Both species used derive from land cultivations in Piedmont and Liguria.
(§2) The plant material was first sterilised, immersing it in a 5% NaClO solution for 20 minutes, and then washed with sterile distilled water three times.
(§3) The plant parts were fragmented and transferred into sterile Petri dishes containing MS solid medium at a concentration of 4.3 g/l, containing vitamins (1 ml/l), sucrose (20 g/l), agar (10 g/l) and phytohormones at different concentrations, all previously sterilised in an autoclave at 121° C. for 15 minutes.
(§4) In the preparation of cultures in vitro 2,4-dichlorophenoxyacetic acid (2,4-D), naphthaleneacetic acid (NAA), benzyladenine (BA) were used as phytohormones, in the following combinations and concentrations: • 2,4-D 1 mg/l • 2,4-D 0.5 mg/l • BA 1 mg/l • BA 0.5 mg/l • 2,4-D 0.5 mg/l+BA 1 mg/l • 2,4-D 1 mg/l+BA 0.5 mg/l • NAA 2 mg/l • NAA 2 mg/l+BA 0.5 mg/l Callus Induction
(§5) For each type of plant tissue (leaf, stem, seed) and for each species (taxus, hazel) at least 96 dishes were prepared: 12 dishes for each hormone concentration or combination. The dishes containing the plant material were kept inside a phytochamber, in the dark and at a constant temperature of 26° C.
(§6) The fragments were transferred, every 15 days, into new dishes with fresh medium containing the corresponding starting hormone or mixture of hormones. After 15 and 30 days from the culturing of the hazel differentiated tissue explants, the formation of the callus was evaluated. The formation of the callus for the taxus was evaluated at 30 and at 60 days, since before then the callus was not clear.

[2] = system: explants of Corylus avellana; test: callus induction from explants of Corylus avellana; settings: for CALLUS INDUCTION 15 days Leaves (%) / CALLUS INDUCTION 30 days Leaves (%): C. avellana leaves; for CALLUS INDUCTION 15 days Seeds (%) / CALLUS INDUCTION 30 days Seeds (%): C. avellana seeds; for CALLUS INDUCTION 15 days Stems (%) / CALLUS INDUCTION 30 days Stems (%): C. avellana stems
Experimental: as §1, §2, §3, §4, §5, §6

callus of Taxus baccata = test: regeneration of callus (formation of young plants), Taxus baccata; settings: about three months from culturing
[3] = system: callus of Corylus avellana; test: regeneration of callus (formation of young plants), Corylus avellana; settings: about three months from culturing

Structure (SMILES)	CALLUS INDUCTION 30 days Leaves (%) ([1]; hormone 0.5 mg/l)	CALLUS INDUCTION 30 days Leaves (%) ([1]; hormone 1 mg/l)	CALLUS INDUCTION 60 days Leaves (%) ([1]; hormone 0.5 mg/l)	CALLUS INDUCTION 60 days Leaves (%) ([1]; hormone 1 mg/l)	CALLUS INDUCTION 30 days Seeds (%) ([1]; hormone 0.5 mg/l)	CALLUS INDUCTION 30 days Seeds (%) ([1]; hormone 1 mg/l)	CALLUS INDUCTION 60 days Seeds (%) ([1]; hormone 0.5 mg/l)	CALLUS INDUCTION 60 days Seeds (%) ([1]; hormone 1 mg/l)	CALLUS INDUCTION 30 days Stems (%) ([1]; hormone 0.5 mg/l)	CALLUS INDUCTION 30 days Stems (%) ([1]; hormone 1 mg/l)	CALLUS INDUCTION 60 days Stems (%) ([1]; hormone 0.5 mg/l)	CALLUS INDUCTION 60 days Stems (%) ([1]; hormone 1 mg/l)	CALLUS INDUCTION 15 days Leaves (%) ([2]; hormone 0.5 mg/l)	CALLUS INDUCTION 15 days Leaves (%) ([2]; hormone 1 mg/l)	CALLUS INDUCTION 30 days Leaves (%) ([2]; hormone 0.5 mg/l)	CALLUS INDUCTION 30 days Leaves (%) ([2]; hormone 1 mg/l)	CALLUS INDUCTION 15 days Seeds (%) ([2]; hormone 0.5 mg/l)	CALLUS INDUCTION 15 days Seeds (%) ([2]; hormone 1 mg/l)	CALLUS INDUCTION 30 days Seeds (%) ([2]; hormone 0.5 mg/l)	CALLUS INDUCTION 30 days Seeds (%) ([2]; hormone 1 mg/l)	further results
O=C(O)COc1ccc(Cl)cc1Cl [2,4-D, 2,4-dichlorophenoxyacetic acid]	10.9	25.3	63.8	56.3	17.4	26.5	43.7	37.7	46.8	67.0	65.8	76.3	40.8	35.3	41.86	35.5	27.7	28.3	61.6	56.2	CALLUS INDUCTION 15 days Stems (%) ([2]; hormone 0.5 mg/l): 30.5%; CALLUS INDUCTION 15 days Stems (%) ([2]; hormone 1 mg/l): 25.0%; CALLUS INDUCTION 30 days Stems (%) ([2]; hormone 0.5 mg/l): 75.0%; CALLUS INDUCTION 30 days Stems (%) ([2]; hormone 1 mg/l): 68.5%; FORMATION OF YOUNG PLANTS (%) T. baccata (callus of Taxus baccata; hormone 0.5 mg/l): 0%; FORMATION OF YOUNG PLANTS (%) T. baccata (callus of Taxus baccata; hormone 1 mg/l): 0%; FORMATION OF YOUNG PLANTS (%) C. avellana ([3]; hormone 0.5 mg/l): 15.8%; FORMATION OF YOUNG PLANTS (%) C. avellana ([3]; hormone 1 mg/l): 15.5%
c1ccc(CNc2ncnc3nc[nH]c23)cc1 [BA, benzyladenine]	2.0	2.0	4.5	3.0	6.2	0	32.7	0	2.0	2.5	9.0	2.8	1.7	0	4.6	4.6	5.1	4.0	10.3	13.8	activity in callus induction of taxus cultures ([1]; taxus cultures, exception stated for callus from seed at 60 days): not to be very active; CALLUS INDUCTION 15 days Stems (%) ([2]; hormone 0.5 mg/l): 0%; CALLUS INDUCTION 15 days Stems (%) ([2]; hormone 1 mg/l): 2.5%; CALLUS INDUCTION 30 days Stems (%) ([2]; hormone 0.5 mg/l): 0%; CALLUS INDUCTION 30 days Stems (%) ([2]; hormone 1 mg/l): 15.0%; suitability for inducing callus from hazel ([2]; used alone at a concentration of 0.5 and 1 mg/l): least suitable for inducing callus from hazel; FORMATION OF YOUNG PLANTS (%) T. baccata (callus of Taxus baccata; hormone 0.5 mg/l): 0%; FORMATION OF YOUNG PLANTS (%) T. baccata (callus of Taxus baccata; hormone 1 mg/l): 0%; FORMATION OF YOUNG PLANTS (%) C. avellana ([3]; hormone 0.5 mg/l): 13.3%; FORMATION OF YOUNG PLANTS (%) C. avellana ([3]; hormone 1 mg/l): 8.7%
O=C(O)Cc1cccc2ccccc12 [NAA, naphthaleneacetic acid]																					CALLUS INDUCTION 30 days Leaves (%) ([1]; hormone 2 mg/l): 23.8%; CALLUS INDUCTION 60 days Leaves (%) ([1]; hormone 2 mg/l): 33.0%; CALLUS INDUCTION 30 days Seeds (%) ([1]; hormone 2 mg/l): 28.0%; CALLUS INDUCTION 60 days Seeds (%) ([1]; hormone 2 mg/l): 52.0%; CALLUS INDUCTION 30 days Stems (%) ([1]; hormone 2 mg/l): 55.0%; CALLUS INDUCTION 60 days Stems (%) ([1]; hormone 2 mg/l): 56.3%; CALLUS INDUCTION 15 days Leaves (%) ([2]; hormone 2 mg/l): 8.3%; CALLUS INDUCTION 30 days Leaves (%) ([2]; hormone 2 mg/l): 22.1%; CALLUS INDUCTION 15 days Seeds (%) ([2]; hormone 2 mg/l): 4.4%; CALLUS INDUCTION 30 days Seeds (%) ([2]; hormone 2 mg/l): 41.3%; CALLUS INDUCTION 15 days Stems (%) ([2]; hormone 2 mg/l): 8.3%; CALLUS INDUCTION 30 days Stems (%) ([2]; hormone 2 mg/l): 5.4%; FORMATION OF YOUNG PLANTS (%) T. baccata (callus of Taxus baccata; hormone 2 mg/l): 1%; FORMATION OF YOUNG PLANTS (%) C. avellana ([3]; hormone 2 mg/l): 14.4%
